Source: patent publication US8435978B2, “Substituted sulfonamide compounds” (Gruenenthal GmbH, priority 2006, dated 2013)
Structures can show the parent of a compound that is named as a salt.

Assays:
[1] = biological target: T1, human B1R receptor (Homo sapiens, UniProt P46663); test: Functional study on the bradykinin receptor 1 (B1R), FLIPR Ca2+ assay, hB1R cells; format: cell-based; conditions: agonist Lys-Des-Arg9-bradykinin 0.5 nM, % inhibition compared with the maximum achievable inhibition; for inhibition at 10 µM: CHO-K1, test substance 10 μM, read-out: B1R Antagonism, human [10 μM] % Inhibition; for B1R Antagonism, human [10 μM] % Inhibition: test substance 10 μM, hB1R CHO K1 cells
T1 construct: host or cells: CHO K1 cells (Chinese hamster ovary), stably transfected
T1 sequence (P46663 1-353): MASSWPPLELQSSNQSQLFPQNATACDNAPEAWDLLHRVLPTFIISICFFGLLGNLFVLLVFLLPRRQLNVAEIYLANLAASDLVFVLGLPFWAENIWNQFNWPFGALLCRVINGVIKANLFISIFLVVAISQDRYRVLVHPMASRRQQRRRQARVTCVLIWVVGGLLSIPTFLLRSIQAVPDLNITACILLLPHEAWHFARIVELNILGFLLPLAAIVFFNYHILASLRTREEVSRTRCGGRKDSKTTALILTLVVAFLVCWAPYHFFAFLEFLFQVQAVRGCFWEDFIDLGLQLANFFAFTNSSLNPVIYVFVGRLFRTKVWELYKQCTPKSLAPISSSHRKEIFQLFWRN
Outline: (§1)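 FLIPR Ca2+ read-out (Fluo-4, peak fluorescence) in stably transfected CHO K1 cells. Compounds at 10 μM, then 10 min later agonist challenge: human B1R with Lys-Des-Arg9-bradykinin 0.5 nM, rat B1R with Des-Arg9-bradykinin 100 nM; reported as % activation or % of maximal inhibition.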

[2] = biological target: T2, B1R receptor of the rat (Rattus norvegicus, UniProt P97583); test: Functional study on the bradykinin receptor 1 (B1R), FLIPR Ca2+ assay, rB1R cells; format: cell-based; conditions: agonist Des-Arg9-bradykinin 100 nM, % inhibition compared with the maximum achievable inhibition; for inhibition at 10 µM: CHO-K1, test substance 10 μM, read-out: B1R Antagonism, rat [10 μM] % Inhibition; for B1R Antagonism, rat [10 μM] % Inhibition: test substance 10 μM, rB1R CHO K1 cells
T2 construct: host or cells: CHO K1 cells (Chinese hamster ovary), stably transfected
T2 sequence (P97583 1-337): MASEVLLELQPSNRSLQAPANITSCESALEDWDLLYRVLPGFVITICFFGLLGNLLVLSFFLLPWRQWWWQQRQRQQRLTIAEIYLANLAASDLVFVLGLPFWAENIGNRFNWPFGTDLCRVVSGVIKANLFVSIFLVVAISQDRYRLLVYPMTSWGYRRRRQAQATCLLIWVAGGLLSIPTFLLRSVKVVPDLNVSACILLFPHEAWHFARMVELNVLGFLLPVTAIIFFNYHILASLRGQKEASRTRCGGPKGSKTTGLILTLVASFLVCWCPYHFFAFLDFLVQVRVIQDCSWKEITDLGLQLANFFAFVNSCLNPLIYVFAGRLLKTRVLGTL
Outline: as §1

Row | SMILES | inhibition at 10 µM [1] [%] | inhibition at 10 µM [2] [%] | B1R Antagonism, human [10 μM] % Inhibition [1] [%] | B1R Antagonism, rat [10 μM] % Inhibition [2] [%]
1 | CC(C)N(CCN1CCN(C(=O)COCC2CCCCN2S(=O)(=O)c2c(Cl)cc(Cl)cc2Cl)CC1)C(C)C (stereo not shown) [Example 254, 1-(4-(2-(diisopropylamino)ethyl)piperazin-1-yl)-2-((1-(2,4,6-trichlorophenylsulfonyl)piperidin-2-yl)methoxy)ethanone] | 105 | 97.8 | – | –
2 | Cc1cc(C)nc(CC2CCCCN2C(=O)COCC2Cc3ccccc3CN2S(=O)(=O)c2c(C)cc(C)cc2C)c1 (stereo not shown) [Example 223, 1-(2-((4,6-dimethylpyridin-2-yl)methyl)piperidin-1-yl)-2-((2-(mesitylsulfonyl)-1,2,3,4-tetrahydroisoquinolin-3-yl)methoxy)ethanone] | 26.2 | 86.4 | – | –
3 | COc1cc(C)c(S(=O)(=O)N2CCCCC2COCC(=O)NCCN2CCCC2)c(C)c1 (stereo not shown) [Example 343, 2-((1-(4-methoxy-2,6-dimethylphenylsulfonyl)piperidin-2-yl)methoxy)-N-(2-(pyrrolidin-1-yl)ethyl)acetamide] | 80 | 100 | – | –
4 | Cc1c(S(=O)(=O)N2CCCCC2COCC(=O)N2CCN(C3CCN(C)CC3)CC2)sc2ccc(Cl)cc12 (stereo not shown) [Example 151, 2-((1-(5-chloro-3-methylbenzo[b]thiophen-2-ylsulfonyl)piperidin-2-yl)methoxy)-1-(4-(1-methylpiperidin-4-yl)piperazin-1-yl)ethanone dihydrochloride] | 107 | 103 | – | –
5 | COc1cc(C)c(S(=O)(=O)N2CCCCC2COCC(=O)N2CCN(CC3CCN(C)CC3)CC2)c(C)c1 (stereo not shown) [Example 106, 2-((1-(4-methoxy-2,6-dimethylphenylsulfonyl)piperidin-2-yl)methoxy)-1-(4-((1-methylpiperidin-4-yl)methyl)piperazin-1-yl)ethanone dihydrochloride] | 103 | 103 | – | –
6 | COc1cc(C)c(S(=O)(=O)N2CCCC2COCC(=O)NCc2ccc(CN3CCN(C)CC3)cc2)c(C)c1 (stereo not shown) [Example 40, 2-[1-(4-methoxy-2,6-dimethyl-phenylsulfonyl)-pyrrolidin-2-ylmethoxy]-N-[4-(4-methyl-piperazin-1-ylmethyl)-benzyl]-acetamide] | 72.7 | 88.7 | – | –
7 | CN1CCC(N2CCN(C(=O)COCC3CCCCN3S(=O)(=O)c3c(Cl)cc(C(F)(F)F)cc3Cl)CC2)CC1 (stereo not shown) [Example 108, 2-((1-(2,6-dichloro-4-(trifluoromethyl)phenylsulfonyl)piperidin-2-yl)methoxy)-1-(4-(1-methylpiperidin-4-yl)piperazin-1-yl)ethanone] | 102 | 102 | – | –
8 | COc1cc(C)c(S(=O)(=O)N2CCCCC2COCC(=O)N2CCC(N3CCn4cccc4C3)CC2)c(C)c1 (stereo not shown) [Example 211, 1-(4-(3,4-dihydropyrrolo[1,2-a]pyrazin-2(1H)-yl)piperidin-1-yl)-2-((1-(4-methoxy-2,6-dimethylphenylsulfonyl)piperidin-2-yl)methoxy)ethanone] | 106 | 100 | – | –
9 | COc1ccc(S(=O)(=O)N2CCCCC2COCC(=O)N2CCN(Cc3cccc(C)c3)CC2)cc1 (stereo not shown) [Example 219, 2-((1-(4-methoxyphenylsulfonyl)piperidin-2-yl)methoxy)-1-(4-(3-methylbenzyl)piperazin-1-yl)ethanone] | 5.04 | 96.2 | – | –
10 | O=C(COC[C@@H]1Cc2ccccc2CN1S(=O)(=O)c1ccc(Cl)cc1Cl)N1CCC(CCN2CCCC2)CC1 [Example 183, (S)-2-((2-(2,4-dichlorophenylsulfonyl)-1,2,3,4-tetrahydroisoquinolin-3-yl)methoxy)-1-(4-(2-(pyrrolidin-1-yl)ethyl)piperidin-1-yl)ethanone] | 100 | 96.9 | – | –
11 | COCCN1CCN(C(=O)COCC2Cc3ccccc3CN2S(=O)(=O)c2c(C)cc(C)cc2C)CC1 (stereo not shown) [Example 246, 2-((2-(mesitylsulfonyl)-1,2,3,4-tetrahydroisoquinolin-3-yl)methoxy)-1-(4-(2-methoxyethyl)piperazin-1-yl)ethanone] | 56.4 | 72.1 | – | –
12 | COc1cc(C)c(S(=O)(=O)N2Cc3ccccc3CC2COCC(=O)N2CCC(CCN3CCCCC3)CC2)c(C)c1C (stereo not shown) [Example 276, 2-((2-(4-methoxy-2,3,6-trimethylphenylsulfonyl)-1,2,3,4-tetrahydroisoquinolin-3-yl)methoxy)-1-(4-(2-(piperidin-1-yl)ethyl)piperidin-1-yl)ethanone] | 98.9 | 94.2 | – | –
13 | O=C(COCC1Cc2ccccc2CN1S(=O)(=O)c1ccc(Cl)cc1Cl)N1CCC(N2CCOCC2)CC1 (stereo not shown) [Example 65, 2-((2-(2,4-dichlorophenylsulfonyl)-1,2,3,4-tetrahydroisoquinolin-3-yl)methoxy)-1-(4-morpholinopiperidin-1-yl)ethanone] | 55.4 | 93.2 | – | –

Next, values leading:

Row | inhibition at 10 µM [1] [%] | inhibition at 10 µM [2] [%] | B1R Antagonism, human [10 μM] % Inhibition [1] [%] | B1R Antagonism, rat [10 μM] % Inhibition [2] [%] | SMILES
14 | 43 | 103 | – | – | O=C(COCC1CCCN1S(=O)(=O)c1c(Cl)cccc1Cl)N1CCN(c2ccc(Cl)c(Cl)c2)CC1 (stereo not shown) [Example 356, 1-(4-(3,4-dichlorophenyl)piperazin-1-yl)-2-((1-(2,6-dichlorophenylsulfonyl)pyrrolidin-2-yl)methoxy)ethanone]
15 | 97.9 | 102 | – | – | CCN(Cc1ccncc1)C(=O)COCC1CCCCN1S(=O)(=O)c1c(Cl)cccc1Cl (stereo not shown) [Example 482, 2-((1-(2,6-dichlorophenylsulfonyl)piperidin-2-yl)methoxy)-N-ethyl-N-(pyridin-4-ylmethyl)acetamide]
16 | 104 | 104 | – | – | COc1cc(C)c(S(=O)(=O)N2CCCC2COCC(=O)N2CCN(Cc3ccc(Br)cc3)CC2)c(C)c1 (stereo not shown) [Example 350, 1-(4-(4-bromobenzyl)piperazin-1-yl)-2-((1-(4-methoxy-2,6-dimethylphenylsulfonyl)pyrrolidin-2-yl)methoxy)ethanone]
17 | – | – | 48.25 | 100.94 | COc1cc(C)c(S(=O)(=O)N2CCCCC2COCC(=O)NCc2ccc(N3CCOCC3)cc2)c(C)c1 (stereo not shown) [Example 439, 2-((1-(4-methoxy-2,6-dimethylphenylsulfonyl)piperidin-2-yl)methoxy)-N-(4-morpholinobenzyl)acetamide]
18 | 102 | 100 | – | – | COc1cc(C)c(S(=O)(=O)N2Cc3ccccc3CC2COCC(=O)N2CCN(C3CCN(C)CC3)CC2)c(C)c1C (stereo not shown) [Example 562, 2-((2-(4-methoxy-2,3,6-trimethylphenylsulfonyl)-1,2,3,4-tetrahydroisoquinolin-3-yl)methoxy)-1-(4-(1-methylpiperidin-4-yl)piperazin-1-yl)ethanone]
19 | 105 | 101 | – | – | COc1cc(C)c(S(=O)(=O)N2CCCCC2COCC(=O)N(C)[C@H]2CCN(Cc3ccccc3)C2)c(C)c1 (stereo partly drawn) [Example 364, N—((S)-1-benzylpyrrolidin-3-yl)-2-((1-(4-methoxy-2,6-dimethylphenylsulfonyl)piperidin-2-yl)methoxy)-N-methylacetamide]
20 | 91.5 | 101 | – | – | CCN(CC)CCN(CC)C(=O)COCC1CCCCN1S(=O)(=O)c1c(C)cc(OC)cc1C (stereo not shown) [Example 380, N-(2-(diethylamino)ethyl)-N-ethyl-2-((1-(4-methoxy-2,6-dimethylphenylsulfonyl)piperidin-2-yl)methoxy)acetamide]
21 | 102 | 99.7 | – | – | Cc1cc(C)nc(CC2CCCN2C(=O)COCC2CCCCN2S(=O)(=O)c2c(Cl)cccc2Cl)c1 (stereo not shown) [Example 457, 2-((1-(2,6-dichlorophenylsulfonyl)piperidin-2-yl)methoxy)-1-(2-((4,6-dimethylpyridin-2-yl)methyl)pyrrolidin-1-yl)ethanone]
22 | 59.8 | 98 | – | – | COc1cc(C)c(S(=O)(=O)N2CCCCC2COCC(=O)N2CCCC2c2ccc(N(C)C)cc2)c(C)c1 (stereo not shown) [Example 398, 1-(2-(4-(dimethylamino)phenyl)pyrrolidin-1-yl)-2-((1-(4-methoxy-2,6-dimethylphenylsulfonyl)piperidin-2-yl)methoxy)ethanone]
23 | – | – | 101.62 | 100.66 | COc1cc(C)c(S(=O)(=O)N2CCCCC2COCC(=O)N2CCC(N3CCN(C)CC3)CC2)c(C)c1 (stereo not shown) [Example 524, 2-((1-(4-methoxy-2,6-dimethylphenylsulfonyl)piperidin-2-yl)methoxy)-1-(4-(4-methylpiperazin-1-yl)piperidin-1-yl)ethanone]
